Assay results from patent publication US7179825B2, “Retinoic acid mimetic anilides” (Janssen Pharmaceutica N.V., priority 1997, dated 2007).

system: metabolism of retinoic acid in human breast cancer cells; assay: Inhibition of retinoic acid (RA) metabolism (Example C.1); assay type: cell-based; settings: MCF-7 human breast cancer cells, 3H-RA as substrate; concentration needed to reduce the amount of metabolites to 50% of the control
Excerpt: (§1) The property to delay the metabolism of retinoic acid can be evidenced in various in vitro and in vivo experiments. A particular in vitro procedure is described in example C.1 and tests the inhibitory activity of the compounds of formula (I) on the metabolism of retinoic acid in human breast cancer cells. The compounds of the present invention were also effective in suppressing induced vaginal keratinization effects in ovariectomized rats as is described in example C.2.
Inhibition of Retinoic Acid (RA) Metabolism
MCF-7 human breast cancer cells were grown as stock cultures according to art-known protocols. One day before the experiment, RA is added to the stock cultures to stimulate RA-metabolism. At the start of the experiment, cell suspensions were incubated in a tissue culture medium containing ^3H-RA as the substrate. Different concentrations of the test compound (dissolved in 1% DMSO) were added to the incubation mixtures, and at the end of the incubation, the unmetabolized RA is separated from its polar metabolites. The fraction containing the polar ^3H-labelled metabolites was collected and counted in a scintillation counter. For each experiment, a control and a blank incubation were run in parallel. Table 22 list the IC50 value (defined as the concentration in M needed to reduce the amount of metabolites to 50% of the control).

SMILES | IC50 [pM]
CCC(CC)C(c1ccc(NC(=O)Cc2ccc(OC)c(O)c2)cc1)n1ccnc1 (racemic) [Compound 108] | 23.4
CCC(CC)C(c1ccc(NC(=O)Cc2cc(OC)cc(OC)c2)cc1)n1ccnc1 (racemic) [Compound 119] | 940
CC(C)C(c1ccc(NC(=O)Cc2ccc(N)cc2)cc1)n1ccnc1 (stereo not drawn) [Compound 145, (A)-4-amino-N-[4-[1-(1H-imidazol-1-yl)-2-methylpropyl]phenyl]benzeneacetamide] | 3030

system: Ovariectomized rats; assay: Vaginal keratinization test on ovariectomized rats (Example C.2); assay type: in vivo; settings: Rattus norvegicus, po, estradiol undecylate induced keratinization, per os once daily on days 1-3, active dose = 50% of rats show complete suppression, read-out: LAD (lowest active dose)
Excerpt: as §1
“Vaginal Keratinization Test on Ovariectomized Rats”
Ovariectomized rats were injected subcutaneously with a sesame oil solution containing 100 μg of estradiol undecylate in a volume of 0.1 ml per 100 g body weight and control animals were injected with sesame oil. On day one, two and three, test animals were treated once daily with a per os dose of the test compound and control animals with the drug vehicle (PEG 200). One day after the last treatment, the animals were sacrificed and their vaginas were processed for histological evaluation according to the method described in J. Pharmacol. Exp. Ther. 261(2), 773–779 (1992). A dose at which 50% of the tested rats show complete suppression of the estradiol undecylate induced keratinization effects is defined as an active dose. Table 23 lists the lowest active dose (LAD in mg/kg) of the compounds of formula (I) which were tested.

SMILES | minimal effective dose [mg/kg]
CCC(CC)C(c1ccc(NC(=O)C2CCNCC2)cc1)n1ccnc1.Cl (racemic) [Compound 57, (±)-N-[4-[2-ethyl-1-(1H-imidazol-1-yl)butyl]-phenyl]4-piperidinecarboxamide monohydrochloride] | > 5
CCC(CC)C(c1ccc(NC(=O)CN2CCN(C)CC2)cc1)n1cncn1 (racemic) [Compound 15, (±)-N-[4-[2-ethyl-1-(1H-1,2,4-triazol-1-yl)butyl]phenyl]-4-methyl-1-piperazineacetamide] | > 2.5

same assay, conditions: estradiol undecylate induced keratinization, per os once daily on days 1-3, active dose = 50% of rats show complete suppression

SMILES | LAD (lowest active dose) [mg/kg]
CCCCOc1ccc(CC(=O)Nc2ccc(C(C(C)N(C)C)n3ccnc3)cc2)cc1 (single isomer, unassigned) [Compound 319] | >5.00
COc1ccc(CC(=O)Nc2ccc(C(C(C)N3CCOCC3)n3ccnc3)cc2)cc1OC (single isomer, unassigned) [Compound 408] | >5.00
CC(C(c1ccc(NC(=O)Cc2ccc3c(c2)OCO3)cc1)n1ccnc1)N(C)C (single isomer, unassigned) [Compound 337] | 2.50
CCOc1ccc(CC(=O)Nc2ccc(C(C(C)N(C)C)n3cncn3)cc2)cc1OCC (single isomer, unassigned) [Compound 285] | >2.50
CCC(CC)C(c1ccc(NC(=O)CN2CCCCC2)cc1)n1ccnc1 (racemic) [Compound 43] | 2.50
COc1ccc(NC(=O)Nc2ccc(C(CN(C)C)n3ccnc3)cc2)cc1OC (racemic) [Compound 721] | >2.50
COc1ccc(CC(=O)Nc2ccc(C(C(C)N(C)C)n3ccnc3)cc2)cc1OC (single isomer, unassigned) [Compound 318] | >2.50
CNC(C)C(c1ccc(NC(=O)Cc2ccc(OC)c(OC)c2)cc1)n1ccnc1 (racemic) [Compound 400, (±)-(A)-3,4-dimethoxy-N-[4-[1-(1H-imidazol-1-yl)-2-(methylamino)propyl]phenyl]benzeneacetamide] | >2.50
COc1ccc(CCC(=O)Nc2ccc(C(C(C)N(C)C)n3cncn3)cc2)cc1OC (single isomer, unassigned) [Compound 629] | >2.50
CN(C)CC(c1ccc(NC(=O)Cc2ccc(Cl)cc2)cc1)n1ccnc1 (racemic) [Compound 375] | >5.00
CCC(CC)C(c1ccc(NC(=O)CN2CCN(C)CC2)cc1)n1ccnc1 (racemic) [Compound 44] | 2.50
COc1ccc(CC(=O)Nc2ccc(C(C(C)N(C)Cc3ccccc3)n3ccnc3)cc2)cc1OC (single isomer, unassigned) [Compound 398] | >5.00
CCCN(C)C(C)C(c1ccc(NC(C)=O)cc1)n1ccnc1 (mixture of isomers) [Compound 570] | >5.00
COc1ccc(CC(=O)Nc2ccc(C(C(C)N(C)C)n3cncn3)cc2)cc1Cl (single isomer, unassigned) [Compound 279] | 2.50
CC(C)C(c1ccc(NC(=O)c2cc3ccccc3[nH]2)cc1)n1ccnc1 (racemic) [Compound 178] | >10.00
CC(C(c1ccc(NC(=O)CCN2CCN(C)CC2)cc1)n1ccnc1)N(C)C (mixture of isomers) [Compound 354] | >5.00
CC(C(c1ccc(NC(=O)Cc2ccc(Cl)cc2)cc1)n1cncn1)N(C)C (single isomer, unassigned) [Compound 784] | >5.00
CC(=O)Nc1ccc(C(C(C)N(C)C)n2cncn2)cc1 (single isomer, unassigned) [Compound 627] | >2.50
CCOC(=O)C(C)C(c1ccc(NC(=O)Cc2ccc(Cl)cc2)cc1)n1cncn1 (stereo not drawn) [Compound 624] | >2.50
O=C(Nc1ccc(C(c2cccc(C(F)(F)F)c2)n2ccnc2)cc1)Nc1ccccc1F (racemic) [Compound 714] | 2.50

SMILES | LAD (lowest active dose) [mg/kg]
CC(=O)Nc1ccc(C(C(C)N(C)C)n2ccnc2)cc1.O (single isomer, unassigned) [Compound 551] | >2.50
COc1ccc(CC(=O)Nc2ccc(C(C(C)O)n3ccnc3)cc2)cc1OC.O (racemic) [Compound 402, (±)-(B)-3,4-dimethoxy-N-[4-[2-hydroxy-1-(1H-imidazol-1-yl)propyl]phenyl]benzeneacetamide monohydrate] | >5.00
COc1ccc(NC(=O)Nc2ccc(C(c3cccc(C(F)(F)F)c3)n3ccnc3)cc2)cc1 (racemic) [Compound 716] | >2.50
COc1ccc(C(=O)Nc2ccc(C(C(C)N(C)C)n3ccnc3)cc2)cc1OC (single isomer, unassigned) [Compound 341] | >2.50
CCCCCC(C)C(c1ccc(NC(=O)Cc2ccc(OC)c(OC)c2)cc1)n1ccnc1 (single isomer, unassigned) [Compound 384] | >2.50
CCC(CC)C(CC)(c1ccc(NC(=O)Cc2ccc(Cl)cc2)cc1)n1ccnc1 (racemic) [Compound 768] | >2.50
CCCCN(C)C(C)C(c1ccc(NC(=O)Cc2ccc(OC)c(OC)c2)cc1)n1ccnc1 (single isomer, unassigned) [Compound 406] | >5.00
CCC(C)C(c1ccc(NC(=O)Cc2ccc(Cl)cc2)cc1)n1cncn1 (stereo not drawn) [Compound 626] | 2.50
CCCC(c1ccc(NC(=O)Cc2ccc(Cl)cc2)cc1)(C(CC)CC)n1ccnc1 (racemic) [Compound 766] | >2.50
CC(=O)Nc1ccc(C(C=CC(C)C)n2ccnc2)cc1 (racemic) [Compound 532] | >10.00
COc1ccc(CC(=O)N(C)c2ccc(C(C(C)N(C)C)n3cncn3)cc2)cc1OC (single isomer, unassigned) [Compound 437] | >2.50
COc1ccc(CC(=O)Nc2ccc(C(C(C)N(C)C)n3cncn3)cc2)cc1OC (single isomer, unassigned) [Compound 287] | >2.50
COc1ccc(CC(=O)Nc2ccc(C(C(C)N(C)C)n3ccnc3)cc2)cc1OC (single isomer, unassigned) [Compound 379] | >2.50
COc1cc(CC(=O)Nc2ccc(C(C(C)N(C)C)n3cncn3)cc2)ccc1C (single isomer, unassigned) [Compound 294] | >2.50
CCC(CC)C(c1ccc(NC(=S)Nc2nc3ccccc3s2)cc1)n1cncn1 (racemic) [Compound 706] | 5.00
COc1ccc(CC(=O)Nc2ccc(C(C(C)N(C)C)n3cncn3)cc2)cc1C (single isomer, unassigned) [Compound 286] | >2.50
CC(=O)Nc1ccc(C(C(C)N(Cc2ccccc2)Cc2ccccc2)n2ccnc2)cc1 (mixture of isomers) [Compound 572] | >5.00
COc1ccc(CCC(=O)Nc2ccc(C(C(C)N(C)C)n3ccnc3)cc2)cc1OC (single isomer, unassigned) [Compound 429] | >2.50
CCN(CC)C(C)C(c1ccc(NC(C)=O)cc1)n1ccnc1 (single isomer, unassigned) [Compound 554] | 2.50
CC(C(c1ccc(NC(=O)N2CCN(C)CC2)cc1)n1ccnc1)N(C)C (single isomer, unassigned) [Compound 349] | >2.50
